Results reported in US7341752B2, “Antibacterial treatment and composition” (Academia Sinica, priority 2005, dated 2008).

Test system: pathogenic Listeria bacteria
Assay: Prevention of Listeria infection in mice (centaurein given before infection), cumulative survival
Type: in vivo, C57BL/6J mice
Conditions: 20 μg per capita intraperitoneally 24 h before 1-2×10^6 Listeria i.p.; ten days after Listeria injection
Procedure: Six-to-eight week-old C57BL/6J mice were injected intraperitoneally with centaurein at a dose ranging from 0-20 μg per capita. After twenty four hours, the same mice were injected with pathogenic Listeria bacteria. A dose of 1-2×10^6 bacteria were introduced intraperitoneally (in a total volume of 0.2 ml) into each mouse. The cumulative survival rates of the mice were then determined. […] In contrast, only 10% of the mice that were injected with Listeria and not treated with centaurein survived. Thus, centaurein protected the mice from a Listerial infection.

In the case of `COc1ccc(-c2oc3cc(O[C@@H]4O[C@H](CO)[C@@H](O)[C@H](O)[C@H]4O)c(OC)c(O)c3c(=O)c2OC)cc1O` [centaurein], the “cumulative survival of mice” value is reported as “all of the mice”.
